Values of other authors, collected in patent US4795743A, “2'-deamino-2'-hydroxyistamycin Bo derivatives of low toxicity” (Zaidan Hojin Biseibutsu Kagaku Kenkyu Kai, priority 1986, dated 1989).

System: resistant bacteria, Pseudomonas aeruginosa, resistant strains of gram-negative and gram-positive bacteria
Details: background, earlier filings; cited from earlier work

CNCC1CCC(N)C(OC2C(N)CC(O)C(N(C)C(=O)CN)C2O)O1 (stereo not shown) [3-O-demethylistamycin B]
antibacterial activity: active against resistant bacteria, Pseudomonas aeruginosa and also against a variety of resistant strains of gram-negative and gram-positive bacteria
